For orientation: MIC means the least concentration at which growth counts as inhibited. For orientation: inhibition means the change of the read-out against control, counted positive when it falls. As usually defined, the IC50 is the midpoint of a concentration-inhibition curve. In general, efflux ratio refers to the permeability from basolateral to apical divided by that in the opposite direction, in the common usage. In general, Papp refers to a coefficient for how fast a substance crosses the barrier.

≈ marks a conversion by molar mass, not a printed value.

One data set concerns S. aureus ATCC 29213. The experiment in a line: Antimicrobial susceptibility test (MIC), micro-dilution broth. It counts as cell-based. To be noted: Staphylococcus aureus, ATCC29213; S. aureus ATCC 29213; read-out: MIC S. aureus 29213. The essentials: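 CLSI micro-dilution broth method in cation-adjusted Mueller-Hinton broth, in biological triplicate; human serum (pooled, filtered) was also used.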

Data set [1] concerns carbapenem resistant E. coli. The experiment in a line: MIC against infecting strain of the UTI model. It counts as cell-based. The following applies: Escherichia coli; extensively resistant carbapenem resistant E. coli of UTI model. The procedure: UTIs represent one of the biggest risks for healthy individuals in terms of exposure to antibiotic-resistant bacteria and many individuals contract one in their lifetime (roughly 1 in 2 women and 1 in 10 men); as such, these infections from Gram-negative pathogens, particularly those that are drug-resistant, remain a major clinical challenge. As E. coli is the causative agent in the great majority of UTIs fabimycin was evaluated in a murine UTI model with a challenging, extensively resistant strain of carbapenem resistant E. coli (fabimycin MIC=2 μg/mL). When dosed at 33.3 mg/kg, TID fabimycin was able to achieve 3.0, 2.8, 2.9, and 1.9 log10 reductions in bacterial load relative to the vehicle in the spleen, bladder, liver, and kidneys tissues, respectively (FIG. 4).

Another data set concerns H. sapiens HFF-1. Nature of the data set: In-vitro cytotoxicity. It counts as cell-based.
The subject of another data set is H. sapiens A549. The experiment in a line: In-vitro cytotoxicity. It is filed as cell-based.
The nature of the next data set: Plasma stability. It is filed as in vitro ADME.
Another data set can be described thus: Hepatocyte stability. It counts as in vitro ADME.
The next data set relates to S. aureus USA300 LAC. The experiment in a line: Neutropenic mouse thigh infection. It is filed as in vivo, CD-1 mice. The following applies: 5 mg/kg, r.o. The procedure: FIG. 7. […] A) Neutropenic mouse thigh infection model initiated in female BALB/c mice with A. baumannii AR-88 (1.36×10^5 CFU per mouse intramuscular, left thigh) were treated with vehicle (5 mice) or fabimycin (10 mice) four times a day (75 mg/kg intravenously) and bacterial burden evaluated at 26 h post-infection. B) Neutropenic mouse thigh infection initiated in CD-1 mice with S. aureus USA300 LAC (2.3×10^6 CFU per mouse intramuscular in thigh) were treated with vehicle (8 mice) or FabI inhibitor (8 mice per group) 2 and 7 h post-infection (5 mg/kg retro-orbital IV), […]
(§1) With formulation, MTD, and pharmacokinetic data in hand, the efficacy of fabimycin was evaluated in murine infection models. To start, a comparative assessment was made of fabimycin and Debio-1452-NH3 in two murine neutropenic infection models using a dosing regimen that is at the MTD for Debio-1452-NH3 but below the MTD for fabimycin (three doses, intramuscular, at 50 mg/kg).
(§2) Chart 1. Summary of Fabimycin in vivo models.

The test system of data set [2] is A. baumannii AR-299. Nature of the data set: Neutropenic mouse thigh infection. It counts as in vivo, CD-1 mice. The following applies: 50 mg/kg, intramuscular (2, 6, and 11 h post-infection), 26 h. The procedure:
as §1, §2

In data set [3] the test system is A. baumannii AR-299. The experiment in a line: Acute pneumonia (lung) infection. It counts as in vivo, CD-1 mice. The following applies: 50 mg/kg, intramuscular (QD), 48 h. The procedure: as §1, §2
The next data set has as its system A. baumannii AR-88. The experiment in a line: Neutropenic mouse thigh infection. It counts as in vivo, female BALB/c mice. On the procedure:
FIG. 7. […] A) Neutropenic mouse thigh infection model initiated in female BALB/c mice with A. baumannii AR-88 (1.36×10^5 CFU per mouse intramuscular, left thigh) were treated with vehicle (5 mice) or fabimycin (10 mice) four times a day (75 mg/kg intravenously) and bacterial burden evaluated at 26 h post-infection. B) Neutropenic mouse thigh infection initiated in CD-1 mice with S. aureus USA300 LAC (2.3×10^6 CFU per mouse intramuscular in thigh) were treated with vehicle (8 mice) or FabI inhibitor (8 mice per group) 2 and 7 h post-infection (5 mg/kg retro-orbital IV), and the bacterial burden was evaluated 24 h post-infection.
as §1, §2

Another data set in a line: in vitro. To be noted: dog.
Another data set concerns the target HERG (Homo sapiens (Human), UniProt Q12809). The experiment in a line: cell-based.
For the next data set, the target named is CYP 2C9 (Homo sapiens (Human), UniProt P11712). The experiment in a line: biochemical.
A further data set has as its target CYP 2C19 (Homo sapiens (Human), UniProt P33261). Nature of the data set: biochemical.
In the next data set the target is CYP 2D6 (Homo sapiens (Human), UniProt P10635). Nature of the data set: biochemical.
Another data set addresses CYP 3A4 (Homo sapiens (Human), UniProt P08684). The experiment in a line: biochemical.

Sequence of CYP 2C19 (P33261 whole entry): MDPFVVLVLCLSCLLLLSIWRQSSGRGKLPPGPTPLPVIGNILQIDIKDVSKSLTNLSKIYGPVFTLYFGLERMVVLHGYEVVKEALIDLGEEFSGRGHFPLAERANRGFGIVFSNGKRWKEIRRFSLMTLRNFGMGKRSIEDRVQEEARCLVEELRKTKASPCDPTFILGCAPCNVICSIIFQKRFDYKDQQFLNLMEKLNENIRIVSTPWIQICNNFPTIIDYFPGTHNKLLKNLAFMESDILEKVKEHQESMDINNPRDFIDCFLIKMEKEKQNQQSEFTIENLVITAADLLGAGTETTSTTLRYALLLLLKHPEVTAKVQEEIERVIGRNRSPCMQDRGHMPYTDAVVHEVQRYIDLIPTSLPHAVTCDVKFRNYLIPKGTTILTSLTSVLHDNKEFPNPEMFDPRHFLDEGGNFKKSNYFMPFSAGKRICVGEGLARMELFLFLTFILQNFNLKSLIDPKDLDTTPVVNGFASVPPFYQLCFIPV
Sequence of CYP 3A4 (P08684 whole entry): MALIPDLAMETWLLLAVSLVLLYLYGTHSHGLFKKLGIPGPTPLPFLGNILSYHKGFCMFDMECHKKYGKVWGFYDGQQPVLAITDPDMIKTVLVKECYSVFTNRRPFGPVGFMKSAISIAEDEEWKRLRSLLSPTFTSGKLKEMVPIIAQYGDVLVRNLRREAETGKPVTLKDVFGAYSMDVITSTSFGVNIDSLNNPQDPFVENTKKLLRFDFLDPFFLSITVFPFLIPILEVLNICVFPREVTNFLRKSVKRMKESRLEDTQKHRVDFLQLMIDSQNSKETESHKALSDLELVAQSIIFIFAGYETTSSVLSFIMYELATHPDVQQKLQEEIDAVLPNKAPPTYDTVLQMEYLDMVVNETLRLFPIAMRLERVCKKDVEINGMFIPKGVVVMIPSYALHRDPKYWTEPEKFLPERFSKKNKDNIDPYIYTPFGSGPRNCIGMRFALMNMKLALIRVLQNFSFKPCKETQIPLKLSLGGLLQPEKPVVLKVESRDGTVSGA
Sequence of HERG (Q12809 whole entry): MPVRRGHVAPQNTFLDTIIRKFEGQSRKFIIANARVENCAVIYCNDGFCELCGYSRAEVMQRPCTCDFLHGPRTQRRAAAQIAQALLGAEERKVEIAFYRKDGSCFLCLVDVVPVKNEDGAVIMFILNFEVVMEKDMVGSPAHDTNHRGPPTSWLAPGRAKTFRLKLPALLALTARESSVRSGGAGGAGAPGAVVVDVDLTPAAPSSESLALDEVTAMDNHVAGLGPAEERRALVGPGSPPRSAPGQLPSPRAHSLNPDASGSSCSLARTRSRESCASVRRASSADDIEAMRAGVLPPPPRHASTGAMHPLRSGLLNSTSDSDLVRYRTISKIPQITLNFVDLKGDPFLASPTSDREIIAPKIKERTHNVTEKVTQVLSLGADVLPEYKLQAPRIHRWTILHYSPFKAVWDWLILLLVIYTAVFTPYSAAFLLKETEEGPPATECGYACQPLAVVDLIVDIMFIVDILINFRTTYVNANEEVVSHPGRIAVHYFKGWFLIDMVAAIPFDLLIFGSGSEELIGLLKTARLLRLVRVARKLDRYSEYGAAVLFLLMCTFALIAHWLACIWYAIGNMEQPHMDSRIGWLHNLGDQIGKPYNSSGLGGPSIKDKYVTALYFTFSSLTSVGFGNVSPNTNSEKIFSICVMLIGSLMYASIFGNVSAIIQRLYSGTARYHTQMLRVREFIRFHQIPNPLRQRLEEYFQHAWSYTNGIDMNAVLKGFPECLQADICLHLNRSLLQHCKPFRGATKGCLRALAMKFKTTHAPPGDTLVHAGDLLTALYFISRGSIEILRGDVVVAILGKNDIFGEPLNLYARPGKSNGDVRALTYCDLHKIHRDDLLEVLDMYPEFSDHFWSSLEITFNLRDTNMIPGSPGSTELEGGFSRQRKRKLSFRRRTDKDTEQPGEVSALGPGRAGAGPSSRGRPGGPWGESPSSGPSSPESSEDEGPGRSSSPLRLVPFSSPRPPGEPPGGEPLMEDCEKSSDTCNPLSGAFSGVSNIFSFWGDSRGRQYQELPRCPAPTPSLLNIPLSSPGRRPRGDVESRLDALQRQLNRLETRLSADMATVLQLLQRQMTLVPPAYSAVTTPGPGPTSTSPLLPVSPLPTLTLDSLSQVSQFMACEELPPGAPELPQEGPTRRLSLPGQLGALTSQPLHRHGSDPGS
Sequence of CYP 2C9 (P11712 whole entry): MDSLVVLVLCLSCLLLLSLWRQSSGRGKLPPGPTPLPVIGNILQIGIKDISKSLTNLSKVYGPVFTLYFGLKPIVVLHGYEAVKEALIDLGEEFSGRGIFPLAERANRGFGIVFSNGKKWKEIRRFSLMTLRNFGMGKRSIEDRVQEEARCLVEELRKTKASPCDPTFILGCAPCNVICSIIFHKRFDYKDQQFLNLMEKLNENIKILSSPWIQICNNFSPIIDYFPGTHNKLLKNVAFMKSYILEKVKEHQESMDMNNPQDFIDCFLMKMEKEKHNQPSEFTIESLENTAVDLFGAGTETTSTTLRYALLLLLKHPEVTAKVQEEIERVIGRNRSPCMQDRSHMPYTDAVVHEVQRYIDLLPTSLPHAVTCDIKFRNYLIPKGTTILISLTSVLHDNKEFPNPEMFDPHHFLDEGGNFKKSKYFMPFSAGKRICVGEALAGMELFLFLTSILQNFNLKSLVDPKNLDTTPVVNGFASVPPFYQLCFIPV
Sequence of CYP 2D6 (P10635 whole entry): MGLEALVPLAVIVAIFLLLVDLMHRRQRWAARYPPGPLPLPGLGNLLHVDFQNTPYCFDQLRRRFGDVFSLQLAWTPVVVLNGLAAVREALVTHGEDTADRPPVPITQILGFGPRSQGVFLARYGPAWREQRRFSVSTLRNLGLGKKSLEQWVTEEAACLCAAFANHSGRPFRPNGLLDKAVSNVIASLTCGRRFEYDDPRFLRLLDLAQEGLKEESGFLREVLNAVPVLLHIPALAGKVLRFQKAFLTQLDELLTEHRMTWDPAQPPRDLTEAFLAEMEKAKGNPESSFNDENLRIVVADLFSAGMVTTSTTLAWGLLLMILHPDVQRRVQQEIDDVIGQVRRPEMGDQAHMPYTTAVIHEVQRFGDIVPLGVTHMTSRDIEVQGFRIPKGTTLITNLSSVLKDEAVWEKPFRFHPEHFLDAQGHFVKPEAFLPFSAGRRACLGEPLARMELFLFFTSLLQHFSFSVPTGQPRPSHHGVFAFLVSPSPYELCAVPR

With `Cc1c(CN(C)C(=O)/C=C/c2cnc3c(c2)CC[C@H](N)C(=O)N3)oc2ccccc12` [(S)-11, (S,E)-3-(7-amino-8-oxo-6,7,8,9-tetrahydro-5H-pyrido[2,3-b]azepin-3-yl)-N-methyl-N-((3-methylbenzofuran-2-yl)methyl)acrylamide], the results for the MIC (in the data set with S. aureus ATCC 29213; in [1]) were 0.004 µg/mL (≈ 0.00989 µM) and 2 µg/mL (≈ 4.94 µM), respectively. The inhibition at 30 µM was 9.5 ± 3.4% with H. sapiens HFF-1 and -1.2 ± 3.5% in the data set with H. sapiens A549. Also, the IC50 in the data set on H. sapiens HFF-1 (cytotoxicity) was determined as 112 ± 11 µM; with H. sapiens A549 (cytotoxicity) it was 114 ± 3 µM; at HERG, 21.8 µM; at CYP 2C9, 27 µM; at CYP 2C19, 60 µM; on CYP 2D6 it was 65 µM. Further, the IC50 on CYP 3A4 came to 7 µM. For the same compound, in “Plasma stability”, the “stability in rat plasma (in words)” value is recorded as “excellent stability”. The “Hepatocyte stability, Mouse” value in “Hepatocyte stability” stood at 6.1 μL/min/million cells. For the same compound, the “log reduction relative to the vehicle” value with S. aureus USA300 LAC is 2.6 log; in the data set with A. baumannii AR-299 [2], 2.3 log; with A. baumannii AR-299 [3], 3.9 log; in the data set on A. baumannii AR-88 (75 mg/kg IV, QID, 26 h), 1.75 log. Further, the “reduction of bacterial burden” value in the data set on A. baumannii AR-88 (NDM-1 containing A. baumannii, neutropenic thigh) was ~2 log(CFU/thigh). Also, the efflux ratio in “in vitro” (MDCK-MDR1) was 9.4. Also, the Papp in “in vitro” (MDCK-MDR1, MDR1-MDCK Permeability Papp A:B) turned out to be 0.6 ×10⁻⁶ cm/s; in “in vitro” (MDCK-MDR1, MDR1-MDCK Permeability Papp B:A) it was 5.7 ×10⁻⁶ cm/s.
